Entries after “also recorded” stand apart in the source; their conditions may differ.
How the values were obtained:
cell wall UCP = experiment: Flow cytometry of non-permeabilized cells stained with anti-UCP2 antibody for cell wall UCP; assay type: cell-based, Chlamydomonas reinhardtii; details: wild type strains of C. reinhardtii treated with norflurazon; FIG. 3
Description: Wild type (CC124, mt−) and cell wall-less (CC, mt+) C. reinhardtii were tested for the presence of UCP by flow cytometry. Non-permeabilized cells were stained with anti-UCP2 antibody (Santa Cruz Technologies). Cells were prepared for staining with goat anti-UCP2 antibody (Santa Cruz Pharmaceuticals) followed by fluorescein conjugated anti-rabbit or goat outer step antibodies, respectively. Data were acquired on a Coulter Elite Epics flow cytometer (Coulter, Hialeah, Fla.) and analyzed with CellQuest software, (Becton Dickinson, San Jose, Calif.). Cells were stained for intracellular peroxide using 6-carboxy-2′-7′-dichlorodihydrofluorescein diacetate (DCF-DA, Molecular Probes, Eugene, Oreg.). Briefly, cells were incubated with DCF-DA for 20 minutes, washed twice in PBS containing 5% fetal calf serum and analyzed flow cytometrically. Mitochondrial membrane potential was assessed using Mitotracker Red (CM-H2XROS, Molecular Probes, Eugene, Oreg.). The cells were resuspended in cold, or room temperature, PBS containing 13% fetal calf serum, 0.5 micromolar Mitotracker Red dye was then added to the suspension. The cells were incubated at 37° C. for 20 minutes, pelleted, and resuspended in prewarmed medium for analysis. […] Each sample population was classified for cell size (forward scatter) and complexity (side scatter), gated on a population of interest and evaluated using 40,000 cells.

[1] = system: wild type strains of algae; experiment: Light sensitivity of wild type algae in the presence of the herbicide; assay type: cell-based, Chlamydomonas reinhardtii; details: in the presence of norflurazon

CNc1cnn(-c2cccc(C(F)(F)F)c2)c(=O)c1Cl [norflurazon]
cell wall expression of UCP (cell wall UCP): upregulates cell wall expression of UCP; also recorded: Increased levels of uncoupling protein | light sensitivity of algae [1]: made light-sensitive
